# Assay results reported in PMC8175484, “Identification and function of ETH receptor networks in the silkworm Bombyx mori” (Scientific Reports, 2021).
# Legend:
# [1] = test system: isolated CNS of pharate 5th instar larvae; experiment: Electrophysiology: extracellular motor bursts recorded in nerves of abdominal ganglia of the isolated intact or desheathed CNS; design: species or system Bombyx mori; conditions: for time to burst patterns characteristic for pre-ecdysis I and II in dorsal and ventral nerves: isolated nerve cords; for ecdysis burst pattern, CCAP or MIPs applied alone: CCAP alone n = 4, MIP-I only or MIP-I-VII mixture n = 5
# Procedure: Specific roles of various neuropeptides produced by the ETHR neurons were determined using electrophysiology technique in the isolated intact or desheathed CNS. Sharp forceps were used to remove the neurolema on the dorsal or ventral side of selected ganglia under physiological saline (see above) and dorsal or ventral nerves of the abdominal ganglia (AG1-7) were attached to plastic suction electrodes. A mixture or individual neuropeptides were then applied in a 300 μl saline bath and induced extracellular motor bursts were recorded using differential AC amplifier 1700 (A-M Systems, Carlsborg, WA, USA) and Axoscope program (Axon Instruments, Union City, CA, USA). Synthetic peptides used in the assay are listed in Supplementary Table S2 online. A mixture of MIPs was adjusted according to its copy number in the precursor: MIP-I (five copies), MIP-II,V (two copies), MIP-III,IV,VI,VII (one copy each)[28].
# [2] = test system: pharate larvae; experiment: ETH injection into pharate larvae, ecdysis behavior; assay type: in vivo, Bombyx mori; conditions: pharate larvae injected with ETH at 8–15 h prior to ecdysis; fail to shed the old cuticle
# Procedure: Under normal conditions, the ecdysis behavior lasts for ∼10 min and terminates immediately after the old cuticle is completely shed from the last abdominal segment. However, pharate larvae injected with ETH at 8–15 h prior to ecdysis fail to shed the old cuticle and show strong ecdysis contractions for 1–2 h. […] To determine a site of sensory input that terminates the ecdysis behavior, we peeled off a narrow ring of the old cuticle on abdominal segments 1, 3, 5 or 6 of late pharate 5th instar larvae 1–3 h prior to ecdysis. These larvae invariably initiated normal pre-ecdysis behaviors at the expected time and after ∼1 h switched to peristaltic waves of ecdysis contractions. […] In spite of presence of the old cuticle on the head, thorax and anterior abdomen, strong ecdysis contractions ceased immediately after the posterior cuticle was shed from the last abdominal segment in all larvae (n = 14).
# [3] = test system: ETHR-A (BNGR-A6-A); experiment: Aequorin-based calcium mobilization assay, ETHR-A transiently expressed in CHO-K1 cells; assay type: cell-based, Bombyx mori
# Procedure: Pharmacological characterization of ETHR-A (BNGR-A6-A) and ETHR-B (BNGR-A6-B) receptors were carried out in the Chinese hamster ovary (CHO-K1) cells. For expression in CHO-K1 cells, the entire open reading frame for each ETHR was inserted into pcDNA3.1 ( +) vector (Invitrogen, Carlsbad, CA, USA) with a mammalian Kozak translation initiation sequence incorporated at 5´ end and confirmed by DNA sequencing prior to use. The primers used to clone BNGR-A6-A and BNGR-A6-B are listed in Supplementary Table S1 online. For the assay, each receptor was expressed together with the bioluminescent calcium-sensitive reporter aequorin and chimeric Gqs alpha subunit protein that couples receptor activation to the phospholipase C and intracellular Ca^2+ mobilization. […]
# The procedures used for the receptor assays were described previously. […] Following cell application to a well, emitted luminescence corresponding to the ligand-induced intracellular Ca^2+ release was monitored in 0.5 s intervals for 20 s using the GloMax-Multi Detection System (Promega, Madison, WI, USA). […] All experiments were replicated three times and collected output data calculated and further analyzed in Excel (Microsoft, Redmond, WA, USA) and GraphPad Prism 6 software (GraphPad Software Inc.). The concentration-dependent response curves, as well as the corresponding EC50 values were calculated using the Prism software. […]
substance,measurement,setting,value
"SNEAISPFDQGMMGYVIKTNKNIPRMa [ETH, ecdysis triggering hormone, ecdysis triggering hormone from B. mori, synthetic peptide]",time to initiation of clear ecdysis bursts after ETH,"[1]; desheathed CNS activated by ETH, n = 10",27 to 35 min
same,duration of pre-ecdysis before switch to ecdysis motor patterns (ecdysis activation),"[1]; isolated CNS of pharate larvae treated with ETH, dorsal nerves AG4-7",~ 40 min
same,time to burst patterns characteristic for pre-ecdysis I and II in dorsal and ventral nerves,"[1]; 0.3–1 μM, n = 14",5 to 7 min
same,duration of strong ecdysis contractions,[2],1 to 2 h
"PFCNAFTGCa [CCAP, crustacean cardioactive peptide]","ecdysis burst pattern, CCAP or MIPs applied alone",[1]; desheathed CNS,less effective
"GQSNNNRGRVLRCFFNAVTCF-OH [AST-CC, allatostatin CC, allatostatin CC of Bombyx mori]",time to onset of ecdysis bursts,"[1]; desheathed CNS dissected 2–6 h prior to ecdysis, 0,3–1 μM, n = 14",5 to 12 min
same,response (ecdysis motor pattern) of earlier pharate or feeding stages,"[1]; desheathed CNS, 0,3–1 μM, n = 9",irresponsive
"SFIKPN.NVPRVa [PETH, pre-ecdysis triggering hormone, pre-ecdysis triggering hormone from B. mori, synthetic peptide]",time to burst patterns characteristic for pre-ecdysis I and II in dorsal and ventral nerves,"[1]; 0.3–1 μM, n = 14",5 to 7 min
same,EC50,"[3]; CHO-K1 cells co-expressing aequorin and chimeric Gqs alpha subunit, luminescence as % of maximum peak, mean of n = 3, read-out: EC50, BomETHR-A",9.43 nM
same,fold lower sensitivity of ETHR-A to PETH than to ETH,[3]; from concentration-response curves in CHO cells,~ 20 fold
"NADLINSLLALPKDMNDAa [PDF, pigment dispersing factor, pigment dispersing factor of Bombyx mori]",time to onset of pre-ecdysis II bursts (asynchronous motoneuron activity) in ventral nerves of AG2-7,"[1]; desheathed CNS, 0.3–1 μM, n = 8",3 to 5 min
AWQDLNSAWa [MIP-I],"ecdysis burst pattern, CCAP or MIPs applied alone",[1]; desheathed CNS,weak prolonged synchronous bursts or no rhythmic pattern
